# In patent US11213031B2, “Tetrazolylpropyl derivatives and their use as fungicides” (BAYER AKTIENGESELLSCHAFT, priority 2017, dated 2022):
# Assay: Log P by HPLC on reversed phase columns (EEC directive 79/831 Annex V.A8)
# Type: physicochemical
# Settings: not given
# Method: Measurement of Log P values was performed according to EEC directive 79/831 Annex V.A8 by HPLC (High Performance Liquid Chromatography) on reversed phase columns with the following methods: • ^[a]Log P value is determined by measurement of LC-UV, in an acidic range, with 0.1% formic acid in water and acetonitrile as eluent (linear gradient from 10% acetonitrile to 95% acetonitrile). • ^[b]Log P value is determined by measurement of LC-UV, in a neutral range, with 0.001 molar ammonium acetate solution in water and acetonitrile as eluent (linear gradient from 10% acetonitrile to 95% acetonitrile). • ^[c]Log P value is determined by measurement of LC-UV, in an acidic range, with 0.1% phosphoric acid and acetonitrile as eluent (linear gradient from 10% acetonitrile to 95% acetonitrile).
# If more than one Log P value is available within the same method, all the values are given and separated by “+”.
# Calibration was done with straight-chain alkan2-ones (with 3 to 16 carbon atoms) with known Log P values (measurement of Log P values using retention times with linear interpolation between successive alkanones). Lambda-max-values were determined using UV-spectra from 200 nm to 400 nm and the peak values of the chromatographic signals.
row,LogP,Structure (SMILES)
1,2.96^[a],C=C(c1ccccc1F)C(O)(Cn1ncnn1)C1(Cl)CC1 (centres unmarked) [Ib-en-01]
2,2.62^[a],COc1c(F)ccc(CC(O)(Cn2cnnn2)C2(Cl)CC2)c1F (centres unmarked) [Ia-50]
3,2.94^[a],CC1(C(O)(Cc2ccccc2C(F)(F)F)Cn2cnnn2)CC1 (centres unmarked) [Ia-11]
4,2.66^[a],CC=C(c1ccccc1F)C(O)(Cn1cnnn1)C1(Cl)CC1 (racemic) [Ia-en-04]
5,2.82^[a],OC(Cc1cccc(F)c1F)(Cn1ncnn1)C1(Cl)CC1 (centres unmarked) [Ib-03]
6,2.37^[a],COc1cccc(CC(O)(Cn2cnnn2)C2(C)CC2)c1 (centres unmarked) [Ia-61]
7,3.04^[a],OC(Cc1ccc(F)c(F)c1)(Cn1ncnn1)C1(Cl)CC1 (centres unmarked) [Ib-24]
8,2.88^[a],OC(Cc1ccccc1Br)(Cn1cnnn1)C1(Cl)CC1 (centres unmarked) [Ia-24]
9,3.33^[a],OC(Cc1ccc(F)c(Cl)c1)(Cn1ncnn1)C1(Cl)CC1 (centres unmarked) [Ib-18]
10,2.35^[a],COc1ccc(CC(O)(Cn2cnnn2)C2(C)CC2)cc1 (centres unmarked) [Ia-34]
11,2.80^[a],CC1(C(O)(Cc2ccccc2Cl)Cn2cnnn2)CC1 (centres unmarked) [Ia-08]
12,2.82^[a],CC=C(c1cccc(F)c1F)C(O)(Cn1cnnn1)C1(Cl)CC1 (racemic) [Ia-en-06]
13,2.90^[a],OC(Cc1ccc(F)cc1Cl)(Cn1cnnn1)C1(Cl)CC1 (centres unmarked) [Ia-39]
14,3.33^[a],Cc1ccc(CC(O)(Cn2ncnn2)C2(Cl)CC2)c(F)c1F (centres unmarked) [Ib-21]
15,2.92^[a],Cc1ccc(CC(O)(Cn2cnnn2)C2(Cl)CC2)c(F)c1F (centres unmarked) [Ia-55]
16,2.75^[a],CC=C(c1cccc(F)c1F)C(O)(Cn1cnnn1)C1(Cl)CC1 (racemic) [Ia-en-07]
17,2.92^[a],OC(Cc1cccc(Br)c1)(Cn1cnnn1)C1(Cl)CC1 (centres unmarked) [Ia-62]
18,1.65^[a],OC(Cc1ccncc1Cl)(Cn1cnnn1)C1(Cl)CC1 (centres unmarked) [Ia-73]
19,2.71^[a],OC(Cc1ccccc1C(F)(F)F)(Cn1cnnn1)C1(F)CC1 (centres unmarked) [Ia-76]
20,2.92^[a],CC1(C(O)(Cc2ccccc2Br)Cn2cnnn2)CC1 (centres unmarked) [Ia-09]

row,LogP,Structure (SMILES)
1,2.64^[a],OC(Cc1ccc(F)c(F)c1)(Cn1cnnn1)C1(Cl)CC1 (centres unmarked) [Ia-56]
2,3.06^[a],OC(Cc1cc(F)cc(F)c1F)(Cn1ncnn1)C1(Cl)CC1 (centres unmarked) [Ib-11]
3,2.35^[a],CC1(C(O)(Cc2ccccc2)Cn2cnnn2)CC1 (centres unmarked) [Ia-10]
4,2.82^[a],OC(Cc1cccc(Cl)c1)(Cn1cnnn1)C1(Cl)CC1 (centres unmarked) [Ia-47]
5,2.63^[a],OC(Cc1cc(F)cc(F)c1)(Cn1cnnn1)C1(Cl)CC1 (centres unmarked) [Ia-31]
6,2.98^[a],OC(Cc1c(F)cc(Cl)cc1F)(Cn1cnnn1)C1(Cl)CC1 (centres unmarked) [Ia-75]
7,3.00^[a],CC=C(c1cccc(Cl)c1F)C(O)(Cn1cnnn1)C1(Cl)CC1 (racemic) [Ia-en-05]
8,3.11^[a],COc1cc(F)c(CC(O)(Cn2ncnn2)C2(Cl)CC2)c(F)c1 (centres unmarked) [Ib-15]
9,2.78^[a],Cc1cccc(CC(O)(Cn2cnnn2)C2(Cl)CC2)c1 (centres unmarked) [Ia-64]
10,2.52^[a],OC(Cc1c(F)cccc1F)(Cn1cnnn1)C1(Cl)CC1 (centres unmarked) [Ia-13]
11,0.79^[a],CC1(C(=O)Cn2cnnn2)CC1 [XVIa-02]
12,2.64^[a],OC(Cc1c(F)cc(F)cc1F)(Cn1cnnn1)C1(Cl)CC1 (centres unmarked) [Ia-35]
13,3.37^[a],OC(Cc1ccc(Cl)cc1F)(Cn1ncnn1)C1(Cl)CC1 (centres unmarked) [Ib-08]
14,1.86^[a],OC(Cc1cncc(Cl)c1)(Cn1cnnn1)C1(Cl)CC1 (centres unmarked) [Ia-74]
15,2.51^[a],COc1ccc(F)c(CC(O)(Cn2cnnn2)C2(Cl)CC2)c1F (centres unmarked) [Ia-46]
16,2.71^[a],C=C(c1ccccc1Cl)C(O)(Cn1cnnn1)C1(Cl)CC1 (centres unmarked) [Ia-en-09]
17,2.90^[a],OC(Cc1ccc(F)c(Cl)c1)(Cn1cnnn1)C1(Cl)CC1 (centres unmarked) [Ia-52]
18,2.45^[a],CC1(C(O)(Cc2ccccc2F)Cn2cnnn2)CC1 (centres unmarked) [Ia-68]
19,2.73^[a],COc1ccccc1CC(O)(Cn1cnnn1)C1(Cl)CC1 (centres unmarked) [Ia-14]

# The remaining lines, values behind:
row,Structure (SMILES),LogP
1,OC(Cc1cncc(F)c1)(Cn1cnnn1)C1(Cl)CC1 (centres unmarked) [Ia-59],1.53^[a]
2,OC(Cc1ccc(F)cc1F)(Cn1cnnn1)C1(Cl)CC1 (centres unmarked) [Ia-53],2.57^[a]
3,CC(c1cccc(F)c1F)C(O)(Cn1cnnn1)C1(Cl)CC1 (centres unmarked) [Ia-25],2.96^[a]
4,Cc1cccc(CC(O)(Cn2cnnn2)C2(F)CC2)c1 (centres unmarked) [Ia-28],2.42^[a]
5,OC(Cc1ccncc1Cl)(Cn1ncnn1)C1(Cl)CC1 (centres unmarked) [Ib-22],1.96^[b]
6,COc1c(F)ccc(CC(O)(Cn2ncnn2)C2(Cl)CC2)c1F (centres unmarked) [Ib-14],3.00^[a]
7,OC(Cc1cccnc1F)(Cn1ncnn1)C1(Cl)CC1 (centres unmarked) [Ib-25],1.91^[a]
8,OC(Cc1cccc(C(F)(F)F)c1F)(Cn1cnnn1)C1(Cl)CC1 (centres unmarked) [Ia-71],3.04^[a]
9,COC(Cc1ccccc1Br)(Cn1cnnn1)C1(Cl)CC1 (centres unmarked) [Ia-70],3.23^[a]
10,OC(Cc1ccc(Cl)cc1F)(Cn1cnnn1)C1(Cl)CC1 (centres unmarked) [Ia-40],2.90^[a]
11,OC(Cc1c(F)ccc(F)c1F)(Cn1cnnn1)C1(Cl)CC1 (centres unmarked) [Ia-54],2.60^[a]
12,OC(Cc1c(F)cc(F)cc1F)(Cn1ncnn1)C1(Cl)CC1 (centres unmarked) [Ib-07],3.09^[a]
13,Cc1ccc(F)c(CC(O)(Cn2cnnn2)C2(Cl)CC2)c1F (centres unmarked) [Ia-36],2.90^[a]
14,OC(Cc1cccc(Br)c1F)(Cn1cnnn1)C1(Cl)CC1 (centres unmarked) [Ia-41],2.92^[a]
15,OC(Cc1ccccc1Br)(Cn1cnnn1)C1(F)CC1 (centres unmarked) [Ia-21],2.49^[a]
16,Cc1ccc(F)c(CC(O)(Cn2cnnn2)C2(Cl)CC2)c1Cl (centres unmarked) [Ia-45],3.23^[a]
17,COc1ccc(CC(O)(Cn2cnnn2)C2(F)CC2)cc1 (centres unmarked) [Ia-27],2.08^[a]
18,"CC(c1cc(F)ccc1F)C(O)(Cn1cnnn1)C1(Cl)CC1 (single isomer, unassigned) [Ia-16]",2.66^[a]
19,Cc1ccc(CC(O)(Cn2cnnn2)C2(Cl)CC2)cc1 (centres unmarked) [Ia-57],2.78^[a]
20,OC(Cc1c(F)cccc1Cl)(Cn1cnnn1)C1(Cl)CC1 (centres unmarked) [Ia-72],2.90^[a]
21,COc1ccc(F)c(CC(O)(Cn2ncnn2)C2(Cl)CC2)c1F (centres unmarked) [Ib-20],2.86^[a]
22,Cc1ccc(CC(O)(Cn2cnnn2)C2(C)CC2)cc1 (centres unmarked) [Ia-30],2.73^[a]
23,OC(Cc1ccc(F)c(F)c1F)(Cn1ncnn1)C1(Cl)CC1 (centres unmarked) [Ib-10],3.11^[a]
24,OC(Cc1ccc(F)c(F)c1F)(Cn1cnnn1)C1(Cl)CC1 (centres unmarked) [Ia-44],2.71^[a]
25,OC(Cc1cccc(Cl)c1F)(Cn1ncnn1)C1(Cl)CC1 (centres unmarked) [Ib-06],3.19^[a]

row,Structure (SMILES),LogP
1,OC(Cc1cccc(F)c1)(Cn1cnnn1)C1(Cl)CC1 (centres unmarked) [Ia-69],2.54^[a]
2,COc1ccc(CC(O)(Cn2cnnn2)C2(Cl)CC2)c(F)c1F (centres unmarked) [Ia-48],2.59^[a]
3,CC1(C(O)(Cc2cccc(Br)c2)Cn2cnnn2)CC1 (centres unmarked) [Ia-63],2.84^[a]
4,CC1(C(=O)Cn2ncnn2)CC1 [XVIb-02],1.05^[a]
5,OC(Cc1cccc(Cl)c1Cl)(Cn1cnnn1)C1(Cl)CC1 (centres unmarked) [Ia-15],3.19^[a]
6,C=C(c1cc(F)ccc1F)C(O)(Cn1cnnn1)C1(Cl)CC1 (centres unmarked) [Ia-en-01],2.54^[a]
7,O=C(Cn1ncnn1)C1(F)CC1 [XVIb-03],0.86^[a]
8,COc1cc(F)c(CC(O)(Cn2cnnn2)C2(Cl)CC2)c(F)c1 (centres unmarked) [Ia-49],2.69^[a]
9,OC(Cc1cc(F)c(F)cc1F)(Cn1cnnn1)C1(Cl)CC1 (centres unmarked) [Ia-51],2.66^[a]
10,OC(Cc1cccc(F)c1F)(Cn1cnnn1)C1(Cl)CC1 (centres unmarked) [Ia-06],2.46^[a]
11,OC(Cc1ccccc1C(F)(F)F)(Cn1cnnn1)C1(Cl)CC1 (centres unmarked) [Ia-07],3.02^[a]
12,"CC(c1cc(F)ccc1F)C(O)(Cn1cnnn1)C1(Cl)CC1 (single isomer, unassigned) [Ia-18]",2.92^[a]
13,Cc1ccc(CC(O)(Cn2cnnn2)C2(F)CC2)cc1 (centres unmarked) [Ia-33],2.44^[a]
14,COc1cccc(CC(O)(Cn2cnnn2)C2(Cl)CC2)c1 (centres unmarked) [Ia-60],2.42^[a]
15,OC(Cc1cncc(F)c1)(Cn1ncnn1)C1(Cl)CC1 (centres unmarked) [Ib-23],1.76^[a]
16,OC(Cc1ccc(F)cc1F)(Cn1ncnn1)C1(Cl)CC1 (centres unmarked) [Ib-17],2.96^[a]
17,OC(Cc1ccccc1OC(F)(F)F)(Cn1cnnn1)C1(Cl)CC1 (centres unmarked) [Ia-32],3.06^[a]
18,COc1ccc(CC(O)(Cn2cnnn2)C2(Cl)CC2)cc1 (centres unmarked) [Ia-58],2.40^[a]
19,Cc1ccc(F)c(CC(O)(Cn2ncnn2)C2(Cl)CC2)c1F (centres unmarked) [Ib-09],3.37^[a]
20,OC(Cc1cccc(Cl)c1F)(Cn1cnnn1)C1(Cl)CC1 (centres unmarked) [Ia-02],2.72^[a]
21,C=C(c1cccc(Cl)c1F)C(O)(Cn1cnnn1)C1(Cl)CC1 (centres unmarked) [Ia-en-10],2.82^[a]
22,COC(Cc1ccccc1Cl)(Cn1cnnn1)C1(Cl)CC1 (centres unmarked) [Ia-37],3.19^[a]
23,OC(Cc1ccc(Br)cc1F)(Cn1cnnn1)C1(Cl)CC1 (centres unmarked) [Ia-67],3.23^[a]
24,Cc1ccccc1CC(O)(Cn1cnnn1)C1(Cl)CC1 (centres unmarked) [Ia-66],2.77^[a]
25,OC(Cc1ccccc1)(Cn1cnnn1)C1(F)CC1 (centres unmarked) [Ia-17],2.08^[a]

# Same assay, conditions: method [a]: LC-UV, acidic range, 0.1% formic acid in water and acetonitrile as eluent
row,Structure (SMILES),chromatographic logP
1,"O=C(Cn1ncnn1)C1(Cl)CC1 [XVIb-01, 1-(1-chlorocyclopropyl)-2-(tetrazol-2-yl)ethanone]",1.3
2,"OC(Cc1ccccc1Cl)(Cn1ncnn1)C1(Cl)CC1 (centres unmarked) [Ib-04, 2-(1-chlorocyclopropyl)-1-(2-chlorophenyl)-3-(tetrazol-2-yl)propan-2-ol]",3.2
3,"O=C(Cn1cnnn1)C1(Cl)CC1 [XVIa-01, 1-(1-chlorocyclopropyl)-2-(tetrazol-1-yl)ethanone]",0.99
